# Data as given in patent publication US7947854B2, “Bis-cationic compounds and use thereof” (The University of Sydney, priority 2003, dated 2011).
# Read-outs that look alike come from different tables or passages of the source.
# Legend:
# [1] = tested on: secreted phospholipase B (PLB activity); assay: Radiometric assay, secreted PLB activity; type: biochemical, Cryptococcus neoformans H99
# Procedure: (§1) Fungal isolates and media. […] Isolate H99 was kindly supplied by Dr. Gary Cox (Duke University Medical Center, Durham, N.C., USA), and subcultured onto Sabouraud dextrose agar (SDA) at 30° C.
# (§2) Preparation of supernatants containing secreted phospholipase activities. Isolate H99 was grown to confluence on SDA in 16 cm diameter Petri dishes for 72 h at 30° C. in air. Cells scraped from 10-20 dishes were washed sequentially with isotonic saline and imidazole buffer (10 mM imidazole, 2 mM CaCl2, 2 mM Mg Cl2, 56 mM D-Glucose, made up in isotonic saline, pH 5.5), resuspended in a volume of this buffer of about 10% of the cell volume, and incubated for 24 h at 37° C. The cell-free supernatant was separated by centrifugation as previously described and stored at −70° C.
# Radiometric assay method for phospholipases. Enzyme activities were measured as described previously in a final volume of 125 μL at 37° C. For the determination of secreted PLB activity, carrier dipalmitoyl phosphatidylcholine (DPPC, final concentration 800 μM) and 1,2-di[1-^14C] palmitoyl phosphatidylcholine (20,000 dpm) were dried under nitrogen and suspended in 125 mM imidazole acetate buffer (assay buffer, pH 4.0) by sonication using a Branson 450 sonifier. The reaction time was 22 min, using 1 μg total protein and PLB activity was determined by the rate of decrease of the radiolabelled PC substrate, with appearance of the label in free fatty acid. This assay also simultaneously allows for the determination of phospholipase A, C and D activities. These activities were measured by the appearance of radiolabel from PC in Lyso PC, diacylglycerol and phosphatidic acid, respectively.
# (§3) All reactions were terminated by adding 0.5 mL of chloroform:methanol (2:1 v/v). The reaction products were extracted by the method as disclosed in Bligh, E. C. and W. J. Dyer. 1959 ‘A rapid method of total lipid extraction and purification.’ Can. J. Biochem. Physiol. 37:911-917, separated by TLC and quantified as previously described. In the case of PLC activity, the TLC plates were developed in petroleum ether (BP 60-80° C.): diethyl ether: acetic acid (90:15:1, v/v/v) instead of chloroform:methanol:water (65:25:4, v/v/v).
# (§4) Preparation of inhibitors and use in assays. The following compounds were tested (for structures, see FIG. 2): compound 1, 1,12-bis(tributylphosphonium)dodecane dibromide (Fluka AG, Buchs, Switzerland); compound 2, 1,10-bis(tributylammonium)-decane dibromide; compound 3, 1,12-bis(tributylammonium)do-decane dibromide (both synthesised in-house); compound 4, 1,10-bis(trimethylammonium)decane dibromide [“decamethonium”] (Sigma, St. Louis Mo., USA). All compounds were prepared as stock solutions of 700 μM in assay buffer containing 5 mM EDTA, which was then diluted serially with buffer to obtain solutions of 70, 7, 0.7 and 0.07 μM. In each assay, 45 μL of these solutions was used, and the final volume of 125 μL was made up of substrate, enzyme and buffer. The radiometric assay was carried out as above. Inhibition was calculated as the percent of substrates (DPPC or Lyso-PC) remaining in the case of PLB and LPL activities, or of DPPC produced, in the case of the LPTA activity. The amounts converted, or produced, in the inhibitor-free control were normalised to 100%, and the inhibition calculated against it. All assays were done in triplicate.
# (§5) Under these conditions only PLB, LPL and LPTA activities (both secreted and cell-associated) were measured. Initially, compounds deemed to be potential inhibitors were assayed at 25 and 250 μM. Those showing some inhibition were then also assayed at 2.5 and 0.25 μM.
# [2] = tested on: secreted phospholipase B (LPL/LPTA activities); assay: Radiometric assay, secreted LPL and LPTA activities (Lyso assay); type: biochemical, Cryptococcus neoformans H99
# Procedure: as §1, §2
# Secreted LPL and LPTA activities were measured simultaneously in a reaction mixture containing 1-[^14C]palmitoyl lyso-PC (25,000 dpm) and carrier lyso-PC (final concentration 200 μM) in assay buffer. The reaction time was […] with 1 μg of total protein and LPL activity was measured by the rate of loss of 1-[^14C]palmitoyl lyso-PC with release of radiolabelled fatty acids. LPTA activity was estimated from the rate of formation of radiolabelled PC.
# as §3, §4, §5
# [3] = tested on: Candida albicans ATCC 10231; assay: Antifungal susceptibility testing, microdilution MIC; type: cell-based
# Procedure: (§6) Antifungal susceptibility testing. The antifingal activity of the compounds was measured by a standard microdilution method. […] The fungal strains tested included Cryptococcus neoformans H99, Cryptococcus neoformans ATCC 90112 and Candida albicans ATCC 10231. All tests were performed in duplicate.
# (§7) A range of cationic compounds were assayed for antifungal activity in a standardised serial dilution sensitivity test against C. neoformans ([…]) and C. Albicans (ATCC 10231).
# [4] = tested on: Cryptococcus neoformans ATCC 90112; assay: as above; type: cell-based
# Procedure: as §6, §7
# erythrocyte = type: cell-based; settings: 37° C., 1 h
# Procedure: Human blood was collected in 10 mL Vacutainer tubes containing potassium-EDTA as anticoagulant. The blood from each vacutainer was transferred to a 50 mL centrifuge tube and the cells washed three times with calcium- and magnesium-free phosphate buffered saline (PBS) (Gibco) by centrifugation at 2000×g for 15 min. The third supernatant was clear and colourless. Cells were stored in PBS for up to two weeks. The cell suspension in PBS (0.5 mL) was mixed with a stock solution of test substance (0.5 mL) at the appropriate concentration (final erythrocyte concentration of approx. 0.5×10^9 per mL). The mixtures were incubated at 37° C. for 1 h with gentle shaking, then centrifuged at 2000×g for 10 min. The supernatant was diluted 10-fold with PBS and the optical density measured at 540 nm. The values for 0% and 100% lysis were determined by incubating cells with PBS or 0.1% Triton X-100 (in water), respectively. Assays were carried out in triplicate.
# [5] = Candida albicans, ATCC10231, Table 7, read-out: MIC (μM) C. alb. (10231)
# [6] = Cryptococcus neoformans, ATCC90112, Table 7, read-out: MIC (μM) Crypto. (ATCC 90112)
# [7] = Candida albicans, ATCC10231, read-out: MIC (μM) C. alb. (10231)
# [8] = Cryptococcus neoformans, ATCC90112, read-out: MIC (μM) Crypto. (ATCC 90112)
Structure (SMILES),PLB assay (% inhibition) ([1]; 25 μM),PLB assay (% inhibition) ([1]; 250 μM),Lyso assay (% inhibition) LPL ([2]; 25 μM),Lyso assay (% inhibition) LPTA ([2]; 25 μM),Lyso assay (% inhibition) LPL ([2]; 250 μM),Lyso assay (% inhibition) LPTA ([2]; 250 μM),"MIC [3, 5] [µM]","MIC [4, 6] [µM]",Haemolytic assay (%) (erythrocyte; 3.5 μM),Haemolytic assay (%) (erythrocyte; 35 μM),Haemolytic assay (%) (erythrocyte; 88 μM),Haemolytic assay (%) (erythrocyte; 175 μM),Haemolytic assay (%) (erythrocyte; 350 μM),PLB assay (% inhibition) ([1]; 0.25 μM) [%],PLB assay (% inhibition) ([1]; 2.5 μM) [%],"MIC [3, 7] [µM]","MIC [4, 8] [µM]",also measured
"CC(C)C[N+](CCCCCCCCCCCC[N+](CC(C)C)(CC(C)C)CC(C)C)(CC(C)C)CC(C)C.[Br-].[Br-] [1,12-Bis-(triisobutylammonium)dodecane dibromide]",250 μM = 0% 25 μM = 0% 2.5 μM = n.d. 0.25 μM = n.d.,250 μM = 0% 25 μM = 0% 2.5 μM = n.d. 0.25 μM = n.d.,250 μM = 0% 25 μM = 0% 2.5 μM = n.d. 0.25 μM = n.d.,4%,250 μM = 0% 25 μM = 0% 2.5 μM = n.d. 0.25 μM = n.d.,5%,–,–,–,–,–,–,–,–,–,–,–,MIC (μM) C. alb. (10231) ([3]; Table 7): ≧350 μM; MIC (μM) Crypto. (ATCC 90112) ([4]; Table 7): ≧350 μM
"CCCC[N+]1(CCCCCCCCCCCC[N+]2(CCCC)CCCC2)CCCC1 [C12-bis-N-butyl-pyro. dibromide, 1,12-Bis-(N-butylpyrrolidinium)dodecane dibromide]",–,–,–,–,–,–,88,88,350 μM = 0% 175 μM = 0% 88 μM = 0% 35 μM = 0% 3.5 μM = 0%,350 μM = 0% 175 μM = 0% 88 μM = 0% 35 μM = 0% 3.5 μM = 0%,350 μM = 0% 175 μM = 0% 88 μM = 0% 35 μM = 0% 3.5 μM = 0%,350 μM = 0% 175 μM = 0% 88 μM = 0% 35 μM = 0% 3.5 μM = 0%,350 μM = 0% 175 μM = 0% 88 μM = 0% 35 μM = 0% 3.5 μM = 0%,–,–,–,–,–
"CC(C)CC[N+](CCCCCCCCCCCC[N+](CCC(C)C)(CCC(C)C)CCC(C)C)(CCC(C)C)CCC(C)C.[Cl-].[Cl-] [1,12-Bis-(triisopentylammonium)dodecane dichloride]",68%,63%,250 μM = 11% 25 μM = 11% 2.5 μM = n.d. 0.25 μM = n.d.,0%,250 μM = 11% 25 μM = 11% 2.5 μM = n.d. 0.25 μM = n.d.,6%,–,–,–,–,–,–,–,0,9,–,–,"PLB assay (% inhibition) ([1]; 6.7 μM): 38%; PLB assay (% inhibition) ([1]; 12.5 μM): 56%; MIC ([3]; Table 7, read-out: MIC (μM) C. alb. (10231)): 2.2 µM; MIC ([4]; Table 7, read-out: MIC (μM) Crypto. (ATCC 90112)): 4.4 µM"
"C[N+]1(CCCCCCCCCCCC[N+]2(C)CCCC2)CCCC1 [C12-bis-N-methyl-pyro. dibromide, 1,12-Bis-(1-methylpyrrolidinium)dodecane dibromide]",0%,9%,250 μM = 0% 25 μM = 0% 2.5 μM = n.d. 0.25 μM = n.d.,250 μM = 0% 25 μM = 0% 2.5 μM = n.d. 0.25 μM = n.d.,250 μM = 0% 25 μM = 0% 2.5 μM = n.d. 0.25 μM = n.d.,250 μM = 0% 25 μM = 0% 2.5 μM = n.d. 0.25 μM = n.d.,–,–,–,–,–,–,–,–,–,175,175,–
CCCCCCCCCCCCCCCC[P+](CCCC)(CCCC)CCCC,37%,92%,15%,5%,98%,95%,2.2,≤ 0.6,2.5%,4%,7%,32%,100%,0,15,–,–,Lyso assay (% inhibition) LPL ([2]; 0.25 μM): 0%; Lyso assay (% inhibition) LPTA ([2]; 0.25 μM): 0%; Lyso assay (% inhibition) LPL ([2]; 2.5 μM): 0%; Lyso assay (% inhibition) LPTA ([2]; 2.5 μM): 0%
"C[N+](C)(C)CCCCCCCCCCCC[N+](C)(C)C [1,12-Bis-(trimethylammonium)dodecane dibromide]",2%,3%,250 μM = 0% 25 μM = 0% 2.5 μM = n.d. 0.25 μM = n.d.,4%,250 μM = 0% 25 μM = 0% 2.5 μM = n.d. 0.25 μM = n.d.,5%,–,–,350 μM = 0% 175 μM = 0% 88 μM = 0% 35 μM = 0% 3.5 μM = 0%,350 μM = 0% 175 μM = 0% 88 μM = 0% 35 μM = 0% 3.5 μM = 0%,350 μM = 0% 175 μM = 0% 88 μM = 0% 35 μM = 0% 3.5 μM = 0%,350 μM = 0% 175 μM = 0% 88 μM = 0% 35 μM = 0% 3.5 μM = 0%,350 μM = 0% 175 μM = 0% 88 μM = 0% 35 μM = 0% 3.5 μM = 0%,–,–,175,175,–
